Assay: Measurement of plasma concentration after patch application
Assay type: in vivo, human
Conditions: for AUC(0-t) / Cmax: male, human, in vivo
Procedure: The blood was collected at each of 0, 0.5, 1, 2, 3, 4, 6, 8, 10, 12, 18, and 24 hours from the start of the application, and the amount of blood collected each time was 7 mL.
The plasma concentrations of the methyl salicylate, its metabolite salicylic acid, and the 1-menthol were each measured. The measurement was performed by liquid chromatography-mass spectrometry for the salicylic acid and by gas chromatography-mass spectrometry for the methyl salicylate and the 1-menthol. Each of the measurement methods was validated beforehand to confirm measurement reliability. Incidentally, values obtained by subtracting an endogenous concentration before the application (measurement value on 0 hour from the start of the application) from an actual measurement value were used as plasma concentrations during the application. The Cmax and AUC0-24 were calculated according to the changes in the measurement values of these plasma concentrations over time.
Changes in the plasma concentrations of the salicylic acid, the methyl salicylate, and the 1-menthol over time are shown in FIG. 4 to FIG. 6. In addition, the pharmacokinetic parameters (mean, maximum value, and minimum value of Cmax and AUC0-24) of each of the drugs are shown in Table 6. Incidentally, a mean in the figure was an average value from the seven human subjects and represented using a standard deviation (SD). This measurement of the plasma concentrations was performed according to the guideline of FDA (U.S. Food and Drug Administration) (Gaidance for Industry=Bioanalytical Method Validation).

[1] = plasma, 280 cm^2 adhesive patch of Example 1 (methyl salicylate 336 mg, l-menthol 100 mg) applied 8 hours, seven healthy males, baseline-subtracted
[2] = plasma, 280 cm^2 adhesive patch of Example 1 applied 8 hours, seven healthy males

COC(=O)c1ccccc1O [Methyl Salicylate]
AUC(0-t) (AUC0-24, Maximum Value): 50 ng·h/mL
AUC(0-t) (AUC0-24, Minimum Value): 8.1 ng·h/mL
Cmax (Maximum Value): 33 ng/mL
Cmax (Minimum Value): 3.5 ng/mL

O=C(O)c1ccccc1O [Salicylic Acid]
AUC(0-t) (AUC0-24, Maximum Value): 11800 ng·h/mL
AUC(0-t) (AUC0-24, Minimum Value): 3950 ng·h/mL
Cmax (Maximum Value): 1770 ng/mL
Cmax (Minimum Value): 705 ng/mL

CC(C)[C@@H]1CC[C@@H](C)C[C@H]1O [l-Menthol]
AUC0-24, Mean ± SD [1]: 53.6 ± 33.4 ng·h/mL
Cmax, Mean ± SD [1]: 10.7 ± 6.4 ng/mL
AUC0-24, Maximum Value [2]: 109 ng·h/mL
AUC0-24, Minimum Value [2]: 15.4 ng·h/mL
Cmax, Maximum Value [2]: 22.5 ng/mL
Cmax, Minimum Value [2]: 4.5 ng/mL

Source: patent US8382729B2, “Adhesive patch” (Hisamitsu Pharmaceutical Co., Inc., priority 2008, dated 2013)
